Experimental data taken from paper PMC7108740, “Exploring the molecular structures that confer ligand selectivity for galanin type II and III receptors” (PLoS ONE, 2020).
Ends that are not written are not given here.

How the values were obtained:
Assay type in all cases: cell-based
[1] = molecular target: T1, GALR3 single mutant L^184M (Homo sapiens, UniProt O60755, L184M); assay: SRE-luc luciferase assay, GALR3 L184M; settings: GALR3 L^184M; SRE-luc in HEK293 Gqi cells, ligand 6 h; mean ± S.E.; SEM
T1 construct: expressed in transfected cells; host or cells: HEK293 cells stably expressing Gqi
Source text: (§1) For domain swapping between GALR2 and GALR3, individual cDNA fragments of interest were amplified by polymerase chain reaction (PCR) with Pfu polymerase (ELPIS Biotech, Daejeon, Korea) and two specific primers, one corresponding to the 5' or 3' end of the GALR2 or GALR3 cDNA and the other to the region of overlap between the two receptors. The two resulting fragments, one from GALR2 and the other from GALR3, were subjected to a second round of PCR to generate the chimeric cDNAs. To construct single, double-, triple-, pentuple-, hextuple-, and septuple-mutant receptors, amino acids of GALR3 were substituted for the amino acids at the corresponding positions in GALR2 using PCR-based site-directed mutagenesis. All of the chimeric constructs were cloned into the pcDNA3 expression vector at HindⅢ and XbaⅠ sites. The DNA sequences of the chimeras were verified by automatic sequencing. […] The luciferase activity in 50 μl cell extract was determined using a luciferase assay system according to the standard protocol for the Synergy 2 Multi-Mode Microplate Reader (BioTek, Winooski, VT, USA). […] The concentrations of agonists that induced half-maximal stimulation (EC50) were calculated using the GraphPad PRISM5 software (GraphPad software, Inc., San Diego, CA). […]

[2] = molecular target: T2, GALR3 single mutant A^191F (Homo sapiens, UniProt O60755, A191F); assay: SRE-luc luciferase assay, GALR3 A191F; settings: GALR3 A^191F; SRE-luc in HEK293 Gqi cells, ligand 6 h; mean ± S.E.; SEM
T2 construct: expressed in transfected cells; host or cells: HEK293 cells stably expressing Gqi
Source text: as §1

[3] = molecular target: T3, GALR3 single mutant F^265P (Homo sapiens, UniProt O60755); assay: SRE-luc luciferase assay, GALR3 F265P; settings: GALR3 F^265P; SRE-luc in HEK293 Gqi cells, ligand 6 h; mean ± S.E.
T3 construct: expressed in transfected cells; host or cells: HEK293 cells stably expressing Gqi
Source text: as §1

[4] = molecular target: T4, GALR3 mutant L^184M,V^186I,A^187C, A^190V,A^191F,G^192S (Homo sapiens, UniProt O60755, A187C/A190V/A191F/G192S/L184M/V186I); assay: SRE-luc luciferase assay, GALR3 hextuple mutant; settings: GALR3 L^184M,V^186I,A^187C, SRE-luc in HEK293 Gqi cells, ligand 6 h, mean ± S.E., SEM
T4 construct: expressed in transfected cells; host or cells: HEK293 cells stably expressing Gqi
Source text: as §1

[5] = molecular target: T5, GALR3 single mutant V^186I (Homo sapiens, UniProt O60755, V186I); assay: SRE-luc luciferase assay, GALR3 V186I; settings: GALR3 V^186I; SRE-luc in HEK293 Gqi cells, ligand 6 h; mean ± S.E.; SEM
T5 construct: expressed in transfected cells; host or cells: HEK293 cells stably expressing Gqi
Source text: as §1

[6] = molecular target: T6, GALR3 mutant A^190V,A^191F,G^192S (Homo sapiens, UniProt O60755, A190V/A191F/G192S); assay: SRE-luc luciferase assay, GALR3 A190V,A191F,G192S; settings: GALR3 A^190V,A^191F,G^192S; SRE-luc in HEK293 Gqi cells, ligand 6 h; mean ± S.E.; SEM
T6 construct: expressed in transfected cells; host or cells: HEK293 cells stably expressing Gqi
Source text: as §1

[7] = molecular target: T7, GALR3 mutant L^184M,V^186I,A^190V (Homo sapiens, UniProt O60755, A190V/L184M/V186I); assay: SRE-luc luciferase assay, GALR3 L184M,V186I,A190V; settings: GALR3 L^184M,V^186I,A^190V; SRE-luc in HEK293 Gqi cells, ligand 6 h; mean ± S.E.; SEM
T7 construct: expressed in transfected cells; host or cells: HEK293 cells stably expressing Gqi
Source text: as §1

[8] = molecular target: T8, GALR3 mutant L^184M,V^186I,A^187C, A^190V,A^191F (Homo sapiens, UniProt O60755, A187C/A190V/A191F/L184M/V186I); assay: SRE-luc luciferase assay, GALR3 pentuple mutant (A191F); settings: GALR3 L^184M,V^186I,A^187C, SRE-luc in HEK293 Gqi cells, ligand 6 h, mean ± S.E., SEM
T8 construct: expressed in transfected cells; host or cells: HEK293 cells stably expressing Gqi
Source text: as §1

[9] = molecular target: T9, GALR3 single mutant A^264P (Homo sapiens, UniProt O60755, A264P); assay: SRE-luc luciferase assay, GALR3 A264P; settings: GALR3 A^264P; SRE-luc in HEK293 Gqi cells, ligand 6 h; mean ± S.E.; SEM
T9 construct: expressed in transfected cells; host or cells: HEK293 cells stably expressing Gqi
Source text: as §1

[10] = molecular target: T10, GALR3 mutant L^184M,V^186I,A^187C (Homo sapiens, UniProt O60755, A187C/L184M/V186I); assay: SRE-luc luciferase assay, GALR3 L184M,V186I,A187C; settings: GALR3 L^184M,V^186I,A^187C; SRE-luc in HEK293 Gqi cells, ligand 6 h; mean ± S.E.; SEM
T10 construct: expressed in transfected cells; host or cells: HEK293 cells stably expressing Gqi
Source text: as §1

[11] = molecular target: T11, GALR3 single mutant P^267R (Homo sapiens, UniProt O60755, P267R); assay: SRE-luc luciferase assay, GALR3 P267R; settings: GALR3 P^267R; SRE-luc in HEK293 Gqi cells, ligand 6 h; mean ± S.E.; SEM
T11 construct: expressed in transfected cells; host or cells: HEK293 cells stably expressing Gqi
Source text: as §1

T8 sequence (O60755 whole entry L184M/V186I/A187C/A190V/A191F): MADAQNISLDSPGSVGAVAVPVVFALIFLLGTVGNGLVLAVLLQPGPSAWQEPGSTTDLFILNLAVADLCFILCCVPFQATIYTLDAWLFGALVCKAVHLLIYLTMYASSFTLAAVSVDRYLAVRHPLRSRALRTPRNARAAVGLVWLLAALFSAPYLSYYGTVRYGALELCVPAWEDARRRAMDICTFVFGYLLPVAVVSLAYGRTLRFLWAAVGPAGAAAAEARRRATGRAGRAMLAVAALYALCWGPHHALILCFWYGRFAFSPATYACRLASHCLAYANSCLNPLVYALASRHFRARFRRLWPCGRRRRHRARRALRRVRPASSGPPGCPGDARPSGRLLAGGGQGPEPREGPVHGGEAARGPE
T1 sequence (O60755 whole entry L184M): as the sequence (O60755 whole entry L184M/V186I/A187C/A190V/A191F) above, with I186V, C187A, V190A, F191A counted along it
T4 sequence (O60755 whole entry L184M/V186I/A187C/A190V/A191F/G192S): as the sequence (O60755 whole entry L184M/V186I/A187C/A190V/A191F) above, with G192S counted along it
T6 sequence (O60755 whole entry A190V/A191F/G192S): as the sequence (O60755 whole entry L184M/V186I/A187C/A190V/A191F) above, with M184L, I186V, C187A, G192S counted along it
T7 sequence (O60755 whole entry L184M/V186I/A190V): as the sequence (O60755 whole entry L184M/V186I/A187C/A190V/A191F) above, with C187A, F191A counted along it
T5 sequence (O60755 whole entry V186I): as the sequence (O60755 whole entry L184M/V186I/A187C/A190V/A191F) above, with M184L, C187A, V190A, F191A counted along it
T10 sequence (O60755 whole entry L184M/V186I/A187C): as the sequence (O60755 whole entry L184M/V186I/A187C/A190V/A191F) above, with V190A, F191A counted along it
T11 sequence (O60755 whole entry P267R): as the sequence (O60755 whole entry L184M/V186I/A187C/A190V/A191F) above, with M184L, I186V, C187A, V190A, F191A, P267R counted along it
T3 sequence (O60755 whole entry F265L): as the sequence (O60755 whole entry L184M/V186I/A187C/A190V/A191F) above, with M184L, I186V, C187A, V190A, F191A, F265L counted along it
T2 sequence (O60755 whole entry A191F): as the sequence (O60755 whole entry L184M/V186I/A187C/A190V/A191F) above, with M184L, I186V, C187A, V190A counted along it
T9 sequence (O60755 whole entry A264P): as the sequence (O60755 whole entry L184M/V186I/A187C/A190V/A191F) above, with M184L, I186V, C187A, V190A, F191A, A264P counted along it

Molecule	EC50 [1] [nM]	EC50 [2] [nM]	EC50 [3] [nM]	EC50 [4] [nM]	EC50 [5] [nM]	EC50 [6] [nM]	EC50 [7] [nM]	EC50 [8] [nM]	EC50 [9] [nM]	EC50 [10] [nM]	EC50 [11] [nM]
CSCC[C@H](NC(=O)[C@H](C)NC(=O)[C@H](CCC(N)=O)NC(=O)[C@@H]1CCCN1C(=O)[C@@H](NC(=O)[C@H](Cc1c[nH]c2ccccc12)NC(=O)[C@@H](N)CC(N)=O)[C@@H](C)O)C(=O)N[C@@H](CC(C)C)C(=O)N[C@@H](Cc1ccc(O)cc1)C(=O)N[C@@H](CC(C)C)C(=O)N[C@@H](CCCCN)C(=O)NCC(=O)N[C@@H](C)C(=O)N[C@@H](CCC(N)=O)C(N)=O [SPX, reference compound]	46.8 ± 15.9	91.2 ± 31	> 1000	25.7 ± 7.92	141 ± 45.8	33.9 ± 11	49 ± 16.6	50.1 ± 16.2	274 ± 76	115 ± 2.61	115 ± 48.7
NWTPQAMLYLKGPQ-NH2 [P^13-SPX]	437 ± 89.8			112 ± 25.1	513 ± 158	123 ± 39.8	324 ± 89.2	141 ± 36.5		457 ± 118	
